Experiments:
[1] = tested on: coffee berry borer (CBB), Hypothenemus hampei; assay: Second field study 2008 near Naranjo, Costa Rica: damaged berries 70 days after treatment; assay type: in vivo; conditions: Costa Rica 2008, 2500 m^2 blocks, 20 TMBs per hectare, 70 days after treatments were initiated
Procedure: A second study was conducted in 2008 near Naranjo, Costa Rica. In this study, blocks treated with either blue and red TMBs had fewer damaged berries 70 days after treatments were initiated than did the untreated block or the block treated with endosulfan. Each block was 2500 m^2 in size and was treated with 20 TMBs per hectare.

[2] = tested on: coffee berry borer (CBB), Hypothenemus hampei; assay: Third field study 2008 near Alajuela, Costa Rica: damaged berries 70 days after treatment; assay type: in vivo; conditions: Costa Rica 2008, 2500 m^2 blocks, 20 TMBs per hectare, 70 days after treatments were initiated
Procedure: A third study was conducted in 2008 near Alajuela, Costa Rica. In this study, 2500 m^2 blocks treated with either blue and red TMBs at a rate of 20 TMBs per hectare had fewer damaged berries 70 days after treatments were initiated than did the untreated block, the block treated with endosulfan, or the block treated with red plastic traps.

With `O=S1OCC2C(CO1)C1(Cl)C(Cl)=C(Cl)C2(Cl)C1(Cl)Cl` (centres unmarked) [endosulfan] the “Mean % infested berries” value [1] was 1.15% and the “Mean % infested berries” value [2] was 5.9%.

Reference: US8943743B2, “Device for attracting and controlling the coffee berry borer, Hypothenemus hampei (Coleoptera: Scolytidae)” (Plato Industries Ltd, priority 2008, dated 2015)
